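Following 48 hours of exposure in 96-well plates, responses at five concentrations were used to interpolate endpoints linearly. GI50 is the concentration that inhibits growth by half.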 The source made the active and inactive calls. No stated cut-off is given here; in the data, active = GI50 up to about 1.1 µM and inactive = higher.
Assays:
Test in all cases: growth of human tumour cells (NCI), 48 h
A549 = system: A549
ACHN = system: ACHN
CAKI-1 = system: CAKI-1
DLD-1 = system: DLD-1
HOP-62 = system: HOP-62
K562 = system: K562
KM12 = system: KM12
Malme-3M = system: Malme-3M
NCI-H226 = system: NCI-H226
NCI-H460 = system: NCI-H460
OVCAR-5 = system: OVCAR-5
RXF 393 = system: RXF 393
SK-MEL-2 = system: SK-MEL-2
SK-MEL-5 = system: SK-MEL-5
SK-OV-3 = system: SK-OV-3
TK-10 = system: TK-10
U-251 = system: U-251
UACC-257 = system: UACC-257
A498 = system: A498
Hs-578T = system: Hs-578T

Measured: GI50

CCOc1cc2cnc3c4cc(OC)c(OC)cc4ccc3c2cc1OC
inactive: A549 > 100 µM | ACHN > 100 µM | CAKI-1 > 100 µM | DLD-1 > 100 µM | HOP-62 > 100 µM | K562 20.7 µM | KM12 46.9 µM | Malme-3M 90.4 µM | NCI-H226 > 100 µM | NCI-H460 > 100 µM | OVCAR-5 > 100 µM | RXF 393 > 100 µM | SK-MEL-2 69 µM | SK-MEL-5 > 100 µM | SK-OV-3 > 100 µM | TK-10 > 100 µM | U-251 6.4 µM | UACC-257 > 100 µM

Cc1nc(N)sc1C(=O)/C=C/c1ccc(/C=C/C(=O)c2sc(NC(=O)CCCCCCCCC(=O)Nc3nc(C)c(C(=O)/C=C/c4ccc(/C=C/C(=O)c5sc(N)nc5C)cc4)s3)nc2C)cc1
inactive: A549 > 100 µM | ACHN > 100 µM | CAKI-1 60.4 µM | DLD-1 > 100 µM | HOP-62 > 100 µM | K562 > 100 µM | KM12 > 100 µM | Malme-3M > 100 µM | NCI-H460 > 100 µM | OVCAR-5 > 100 µM | RXF 393 > 100 µM | SK-MEL-2 > 100 µM | SK-OV-3 > 100 µM | TK-10 > 100 µM | U-251 > 100 µM | UACC-257 > 100 µM

COc1ccc(N2C(=O)/C(=C/c3ccc(N(CCC#N)CCC#N)cc3C)N=C2/C=C\c2ccccc2)cc1
inactive: A549 53 µM | ACHN 18.6 µM | CAKI-1 29.2 µM | DLD-1 > 100 µM | HOP-62 24.4 µM | K562 40.1 µM | KM12 28.1 µM | Malme-3M 41.6 µM | NCI-H226 > 100 µM | NCI-H460 33.4 µM | OVCAR-5 > 100 µM | SK-MEL-2 > 100 µM | SK-MEL-5 31.9 µM | SK-OV-3 49.7 µM | TK-10 98.9 µM | U-251 46.8 µM | UACC-257 99.1 µM

CP(C)C.[Ag][I]
inactive: A549 > 100 µM | ACHN > 100 µM | CAKI-1 > 100 µM | DLD-1 > 100 µM | HOP-62 > 100 µM | K562 > 100 µM | KM12 > 100 µM | Malme-3M 39.6 µM | NCI-H226 > 100 µM | NCI-H460 > 100 µM | OVCAR-5 > 100 µM | RXF 393 > 100 µM | SK-MEL-2 > 100 µM | SK-MEL-5 15.4 µM | SK-OV-3 > 100 µM | TK-10 41.5 µM | U-251 > 100 µM | UACC-257 > 100 µM

CCOC(=O)c1nc2cc(Cl)ccc2[nH]c1=O
inactive: A498 > 100 µM | A549 > 100 µM | ACHN > 100 µM | CAKI-1 > 100 µM | HOP-62 > 100 µM | Hs-578T > 100 µM | K562 > 100 µM | KM12 > 100 µM | Malme-3M > 100 µM | NCI-H226 > 100 µM | NCI-H460 53.7 µM | OVCAR-5 > 100 µM | RXF 393 > 100 µM | SK-MEL-2 > 100 µM | SK-MEL-5 > 100 µM | SK-OV-3 > 100 µM | TK-10 > 100 µM | U-251 > 100 µM | UACC-257 > 100 µM

COc1cc(N)c2[nH]c3c(C)ccc(C)c3c2c1
inactive: A549 > 100 µM | ACHN > 100 µM | CAKI-1 > 100 µM | DLD-1 > 100 µM | HOP-62 > 100 µM | K562 > 100 µM | KM12 > 100 µM | Malme-3M > 100 µM | NCI-H226 > 100 µM | NCI-H460 > 100 µM | OVCAR-5 > 100 µM | SK-MEL-2 > 100 µM | SK-MEL-5 > 100 µM | TK-10 > 100 µM | UACC-257 > 100 µM

O=C(O)c1nccnc1C(=O)O
inactive: A549 > 100 µM | CAKI-1 > 100 µM | DLD-1 > 100 µM | K562 > 100 µM | KM12 > 100 µM | Malme-3M > 100 µM | NCI-H226 > 100 µM | NCI-H460 > 100 µM | OVCAR-5 > 100 µM | RXF 393 > 100 µM | SK-MEL-2 > 100 µM | SK-MEL-5 > 100 µM | SK-OV-3 > 100 µM | TK-10 > 100 µM | U-251 > 100 µM | UACC-257 > 100 µM

CCCCNC1=C(C(=O)OCC)C(=O)CO1
inactive: A549 > 100 µM | ACHN > 100 µM | CAKI-1 > 100 µM | DLD-1 > 100 µM | HOP-62 > 100 µM | K562 > 100 µM | KM12 > 100 µM | Malme-3M > 100 µM | NCI-H226 > 100 µM | NCI-H460 > 100 µM | OVCAR-5 > 100 µM | RXF 393 > 100 µM | SK-MEL-2 > 100 µM | SK-MEL-5 > 100 µM | SK-OV-3 > 100 µM | TK-10 > 100 µM | U-251 > 100 µM | UACC-257 > 100 µM

COC(=O)C1=C(C(=O)OC)C2(C)OC1C(=O)C21CC1 (configuration not stated)
inactive: A549 > 100 µM | ACHN 19.3 µM | CAKI-1 18.6 µM | DLD-1 19.1 µM | HOP-62 > 100 µM | K562 19.8 µM | KM12 30.5 µM | Malme-3M 23.9 µM | NCI-H226 > 100 µM | NCI-H460 24.9 µM | OVCAR-5 > 100 µM | RXF 393 16.8 µM | SK-MEL-2 > 100 µM | SK-MEL-5 > 100 µM | SK-OV-3 > 100 µM | TK-10 > 10 µM | U-251 > 100 µM | UACC-257 57.1 µM

O=C(Cc1nc2ccccc2s1)C(=O)Nc1ccc(Cl)cc1Cl
inactive: A549 > 100 µM | ACHN > 100 µM | DLD-1 > 100 µM | HOP-62 39.9 µM | K562 > 100 µM | KM12 > 100 µM | Malme-3M > 100 µM | NCI-H226 77.6 µM | NCI-H460 > 100 µM | OVCAR-5 > 100 µM | SK-MEL-2 > 100 µM | SK-OV-3 > 100 µM | TK-10 > 100 µM | U-251 > 100 µM | UACC-257 > 100 µM

C=C[C@@]12CCCCC1C/C(=C(/O)OC)C(=O)C2 (some centres not stated)
inactive: A549 > 100 µM | ACHN > 100 µM | CAKI-1 > 100 µM | DLD-1 > 100 µM | HOP-62 > 100 µM | K562 > 100 µM | KM12 > 100 µM | NCI-H226 > 100 µM | NCI-H460 > 100 µM | OVCAR-5 > 100 µM | RXF 393 > 100 µM | SK-MEL-2 > 100 µM | SK-MEL-5 > 100 µM | SK-OV-3 > 100 µM | TK-10 > 100 µM | U-251 > 100 µM | UACC-257 > 100 µM

CC(C)=CCC/C(C)=C/CC/C(C)=C/Cc1c(O)c2ccccc2oc1=O
inactive: A549 65.6 µM | ACHN > 100 µM | DLD-1 > 100 µM | HOP-62 > 100 µM | K562 80.5 µM | KM12 > 100 µM | Malme-3M > 100 µM | NCI-H226 47.1 µM | NCI-H460 > 100 µM | RXF 393 99.1 µM | SK-MEL-2 > 100 µM | SK-OV-3 > 100 µM | TK-10 > 100 µM | U-251 57.9 µM | UACC-257 99.8 µM
